Laboratory results: patent US8426408B2, “Pyrimidine inhibitors of kinases” (AbbVie Inc., priority 2009, dated 2013)
pKi: −log10 of the molar value.

Tests used:
Format in all cases: biochemical
[1] = target: T1, Aurora B (Homo sapiens, UniProt Q96GD4); assay: Aurora B enzyme inhibition (time-resolved fluorescence, histone H3 peptide); conditions: 1 mM ATP
T1 construct: Active Aurora B enzyme (recombinant residues 1-344)
Method: To determine Aurora B activity of representative compounds of the invention, Active Aurora B enzyme (recombinant residues 1-344) and INCENP (recombinant GST fusion protein (Upstate)) were incubated in wells of a 384 well plate with biotinylated histone H3 peptide residues 1-21 (Upstate), 1 mM ATP, and various concentrations of inhibitors in a HEPES buffer, pH 7.4 containing MgCl2, sodium othrovanadate, and Triton X-100. After 1 hour, the reaction was stopped with EDTA and anti-phospho-histone H3 Europium Cryptate (Cis-Bio) and SA-APC (Phycolink, Prozyme) were added to detect the phosphopeptide. The amount of phosphorylation was determined by the time-resolved fluorescence ratio of signals at 665 nm and 615 nm. The IC50's were calculated by an exponential fit of the inhibition values with the inhibitor concentrations using Assay Explorer software.

[2] = target: T2, Aurora A (Homo sapiens, UniProt O14965); assay: Aurora A enzyme inhibition (time-resolved fluorescence, STK substrate-2); conditions: 1 mM ATP
T2 sequence (O14965 1-403): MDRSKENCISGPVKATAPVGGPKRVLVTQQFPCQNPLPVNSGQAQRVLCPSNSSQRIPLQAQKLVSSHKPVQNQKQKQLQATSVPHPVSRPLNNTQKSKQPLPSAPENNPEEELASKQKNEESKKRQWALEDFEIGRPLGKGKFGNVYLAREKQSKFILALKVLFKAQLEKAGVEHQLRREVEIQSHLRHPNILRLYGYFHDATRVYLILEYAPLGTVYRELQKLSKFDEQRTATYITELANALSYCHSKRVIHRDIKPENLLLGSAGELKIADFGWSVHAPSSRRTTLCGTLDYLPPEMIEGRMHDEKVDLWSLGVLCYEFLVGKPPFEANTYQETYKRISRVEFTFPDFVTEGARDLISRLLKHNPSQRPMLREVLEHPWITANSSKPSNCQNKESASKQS
Method: To determine Aurora A and C activity of representative compounds of the invention, Active Aurora A or C enzyme was incubated in wells of a 384 well plate with biotinylated STK substrate-2 (Upstate), 1 mM ATP, and various concentrations of inhibitors in a Hepes buffer, pH 7.4 containing MgCl2, sodium othrovanadate, and Triton X-100. After 1 hour, the reaction was stopped with EDTA and anti-phospho-STK antibody Europium Cryptate (Upstate) and SA-XL665 (Upstate) were added to detect the phosphopeptide. The amount of phosphorylation was determined by the time-resolved fluorescence ratio of signals at 665 nm and 615 nm. The IC50s were calculated by an exponential fit of the inhibition values with the inhibitor concentrations using Assay Explorer software.

[3] = target: KDR (Homo sapiens, UniProt P35968); assay: KDR HTRF in vitro kinase assay; design: purified enzyme (His6-KDR 789-1354, MW 63 kD); His6 (N); conditions: 1 mM ATP; read-out: KDR enzyme inhibition data (Ki)
Chain of KDR (P35968 789-1354): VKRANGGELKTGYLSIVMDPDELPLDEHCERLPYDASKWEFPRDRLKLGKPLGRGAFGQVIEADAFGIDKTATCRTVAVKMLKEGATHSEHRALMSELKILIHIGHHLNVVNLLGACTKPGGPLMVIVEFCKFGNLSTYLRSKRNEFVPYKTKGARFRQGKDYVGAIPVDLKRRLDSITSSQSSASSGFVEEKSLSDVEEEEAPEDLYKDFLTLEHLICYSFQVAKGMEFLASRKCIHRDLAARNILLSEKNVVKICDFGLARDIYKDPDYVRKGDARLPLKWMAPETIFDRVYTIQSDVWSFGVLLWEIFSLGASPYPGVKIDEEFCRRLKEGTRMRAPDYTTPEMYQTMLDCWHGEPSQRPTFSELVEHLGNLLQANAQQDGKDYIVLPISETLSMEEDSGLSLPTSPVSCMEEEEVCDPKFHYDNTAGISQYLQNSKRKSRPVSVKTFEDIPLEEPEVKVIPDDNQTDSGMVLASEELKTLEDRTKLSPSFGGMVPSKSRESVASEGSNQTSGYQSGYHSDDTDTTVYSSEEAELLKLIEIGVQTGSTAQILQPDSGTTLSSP
Method: To determine the activity of the various kinases, a homogenous time-resolved fluorescence (HTRF) in vitro kinase assay was used. (Mathis, G., HTRF® Technology. J Biomol Screen, 1999. 4(6): p. 309-314; Alfred J. Kolb, Paul V. Kaplita, David J. Hayes, Young-Whan Park, Christine Pernell, John S. Major and Gerard Mathis, Drug Discovery Today, 1998, 3, 333-342.)
For example for KDR, 7 ng/well of purified enzyme (His6-KDR 789-1354, MW 63 kD) was mixed with 0.5 μM N-biotinylated substrate (Biotin-Ahx-AEEEYFFLA-amide (SEQ. ID. 1)), various concentrations of inhibitor in reaction buffer (50 mM HEPES, pH 7.1, 10 mM MgCl2, 2 mM MnCl2, 0.1% BSA and 1 mM DTT, 40 L final volume), ATP (1 mM final conc.) in a black 384-well plate. After 60 minutes incubation at room temperature, the reaction was quenched by addition of a buffered EDTA solution (final approximate concentrations: 30 mM EDTA, 0.1% BSA, 0.1% Triton X-100 and 0.24M KF) and a solution of revelation agents (to give 0.084 ng/well streptavidin-XL-665 (Cis-Bio) and 6.5 ng/well antiphsophotyrosine mAb PT66-K Europium kryptate) was added to the reaction mixture. The quenched reaction was allowed to stand at room temperature for 3 hours and was then read in a time-resolved fluorescence detector (InVision, Perkin-Elmer) at 620 nm and 665 nm sequentially with excitation. The ratio between the signal of 620 nm and 665 nm was used in the calculation of the IC50.

T1 sequence (Q96GD4 whole entry, the tested form may be a part): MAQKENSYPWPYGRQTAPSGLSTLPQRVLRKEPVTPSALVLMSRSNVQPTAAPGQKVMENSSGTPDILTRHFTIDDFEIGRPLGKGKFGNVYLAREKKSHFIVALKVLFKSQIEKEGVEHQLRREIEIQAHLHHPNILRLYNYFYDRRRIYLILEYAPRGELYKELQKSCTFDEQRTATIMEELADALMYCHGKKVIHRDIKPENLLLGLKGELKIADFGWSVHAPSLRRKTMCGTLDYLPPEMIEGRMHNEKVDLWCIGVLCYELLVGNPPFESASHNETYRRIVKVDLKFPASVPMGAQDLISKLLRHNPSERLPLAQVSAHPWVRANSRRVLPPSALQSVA
T1 sequence (Q9NQS7 826-918 partner limits assumed): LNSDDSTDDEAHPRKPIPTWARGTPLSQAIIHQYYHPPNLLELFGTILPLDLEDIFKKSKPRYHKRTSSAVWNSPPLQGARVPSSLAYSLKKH

| pKi [1] | pKi [2] | pKi [3] | Compound |
| --- | --- | --- | --- |
| > 7.00 | > 7.00 | > 7.00 | 5-chloro-N^2-(1H-indazol-5-yl)-N^2-{1-[2-(pyrrolidin-1-yl)ethyl]-1H-pyrazol-4-yl}pyrimidine-2,4-diamine [Example 177] |
| 6.00 to 7.00 | 5.30 to 6.00 | 5.30 to 6.00 | Cn1cc(Nc2ncc(F)c(N[C@@H]3C[C@H]4CC[C@@H]3C4)n2)cn1.Cn1cc(Nc2ncc(F)c(N[C@H]3C[C@@H]4CC[C@H]3C4)n2)cn1 (mixture of isomers) [Example 3, N^4-[(1S,2S,4R)-bicyclo[2.2.1]hept-2-yl]-5-fluoro-N^2-(1-methyl-1H-pyrazol-4-yl)pyrimidine-2,4-diamine and N^4-[(1R,2R,4S)-bicyclo[2.2.1]hept-2-yl]-5-fluoro-N^2-(1-methyl-1H-pyrazol-4-yl)pyrimidine-2,4-diamine] |
| 6.00 to 7.00 | < 5.30 | < 5.30 | Cn1cc(Nc2ncc(F)c(N[C@@H]3CCC[C@@H]3C(N)=O)n2)cn1.Cn1cc(Nc2ncc(F)c(N[C@H]3CCC[C@H]3C(N)=O)n2)cn1 (mixture of isomers) [Example 4, (1S,2R)-2-({5-fluoro-2-[(1-methyl-1H-pyrazol-4-yl)amino]pyrimidin-4-yl}amino)cyclopentanecarboxamide and (1R,2S)-2-({5-fluoro-2-[(1-methyl-1H-pyrazol-4-yl)amino]pyrimidin-4-yl}amino)cyclopentanecarboxamide] |
| 6.00 to 7.00 | < 5.30 | < 5.30 | CCOC(=O)[C@@H]1[C@H](Nc2nc(Nc3cnn(C)c3)ncc2F)[C@H]2C=C[C@@H]1C2.CCOC(=O)[C@H]1[C@@H](Nc2nc(Nc3cnn(C)c3)ncc2F)[C@@H]2C=C[C@H]1C2 (mixture of isomers) [Example 7, ethyl(1S,2S,3R,4R)-3-({5-fluoro-2-[(1-methyl-1H-pyrazol-4-yl)amino]pyrimidin-4-yl}amino)bicyclo[2.2.1]hept-5-ene-2-carboxylate and ethyl(1R,2R,3S,4S)-3-({5-fluoro-2-[(1-methyl-1H-pyrazol-4-yl)amino]pyrimidin-4-yl}amino)bicyclo[2.2.1]hept-5-ene-2-carboxylate] |
| > 7.00 | 6.00 to 7.00 | 5.30 to 6.00 | CC(O)Cn1cc(Nc2ncc(F)c(NC3C4C=CC(C4)C3C(N)=O)n2)cn1 (mixture of isomers) [Example 15, (1R,2R,3S,4S)-3-{[5-fluoro-2-({1-[(2R)-2-hydroxypropyl]-1H-pyrazol-4-yl}amino)pyrimidin-4-yl]amino}bicyclo[2.2.1]hept-5-ene-2-carboxamide and (1S,2S,3R,4R)-3-{[5-fluoro-2-({1-[(2R)-2-hydroxypropyl]-1H-pyrazol-4-yl}amino)pyrimidin-4-yl]amino}bicyclo[2.2.1]hept-5-ene-2-carboxamide] |
| 6.00 to 7.00 | 6.00 to 7.00 | 5.30 to 6.00 | C[C@@H](O)Cn1cc(Nc2ncc(F)c(N[C@@H]3[C@H]4CC[C@H](C4)[C@@H]3C(N)=O)n2)cn1.C[C@@H](O)Cn1cc(Nc2ncc(F)c(N[C@H]3[C@@H]4CC[C@@H](C4)[C@H]3C(N)=O)n2)cn1 (mixture of isomers) [Example 16, (1S,2R,3S,4R)-3-{[5-fluoro-2-({1-[(2R)-2-hydroxypropyl]-1H-pyrazol-4-yl}amino)pyrimidin-4-yl]amino}bicyclo[2.2.1]heptane-2-carboxamide and (1R,2S,3R,4S)-3-{[5-fluoro-2-({1-[(2R)-2-hydroxypropyl]-1H-pyrazol-4-yl}amino)pyrimidin-4-yl]amino}bicyclo[2.2.1]heptane-2-carboxamide] |
| > 7.00 | > 7.00 | > 7.00 | CN(C)CCn1cc(Nc2ncc(Cl)c(N[C@@H]3[C@H](C(N)=O)[C@H]4C=C[C@@H]3C4)n2)cn1.CN(C)CCn1cc(Nc2ncc(Cl)c(N[C@H]3[C@@H](C(N)=O)[C@@H]4C=C[C@H]3C4)n2)cn1 (mixture of isomers) [Example 33, (1S,2S,3R,4R)-3-{[5-chloro-2-({1-[2-(dimethylamino)ethyl]-1H-pyrazol-4-yl}amino)pyrimidin-4-yl]amino}bicyclo[2.2.1]hept-5-ene-2-carboxamide and (1R,2R,3S,4S)-3-{[5-chloro-2-({1-[2-(dimethylamino)ethyl]-1H-pyrazol-4-yl}amino)pyrimidin-4-yl]amino}bicyclo[2.2.1]hept-5-ene-2-carboxamide] |
| > 7.00 | > 7.00 | > 7.00 | NC(=O)[C@@H]1[C@H](Nc2nc(Nc3cnn(CCN4CCCCC4)c3)ncc2Cl)[C@H]2C=C[C@@H]1C2.NC(=O)[C@H]1[C@@H](Nc2nc(Nc3cnn(CCN4CCCCC4)c3)ncc2Cl)[C@@H]2C=C[C@H]1C2 (mixture of isomers) [Example 36, (1S,2S,3R,4R)-3-[(5-chloro-2-{[1-(2-piperidin-1-ylethyl)-1H-pyrazol-4-yl]amino}pyrimidin-4-yl)amino]bicyclo[2.2.1]hept-5-ene-2-carboxamide and (1R,2R,3S,4S)-3-[(5-chloro-2-{[1-(2-piperidin-1-ylethyl)-1H-pyrazol-4-yl]amino}pyrimidin-4-yl)amino]bicyclo[2.2.1]hept-5-ene-2-carboxamide] |
| > 7.00 | > 7.00 | > 7.00 | NC(=O)[C@@H]1[C@H](Nc2nc(Nc3cnn(CCN4CCCCC4)c3)ncc2Br)[C@H]2C=C[C@@H]1C2.NC(=O)[C@H]1[C@@H](Nc2nc(Nc3cnn(CCN4CCCCC4)c3)ncc2Br)[C@@H]2C=C[C@H]1C2 (mixture of isomers) [Example 38, (1S,2S,3R,4R)-3-[(5-bromo-2-{[1-(2-piperidin-1-ylethyl)-1H-pyrazol-4-yl]amino}pyrimidin-4-yl)amino]bicyclo[2.2.1]hept-5-ene-2-carboxamide and (1R,2R,3S,4S)-3-[(5-bromo-2-{[1-(2-piperidin-1-ylethyl)-1H-pyrazol-4-yl]amino}pyrimidin-4-yl)amino]bicyclo[2.2.1]hept-5-ene-2-carboxamide] |
| > 7.00 | > 7.00 | > 7.00 | NC(=O)[C@@H]1[C@H](Nc2nc(Nc3cnn(CCN4CCOCC4)c3)ncc2Br)[C@H]2C=C[C@@H]1C2.NC(=O)[C@H]1[C@@H](Nc2nc(Nc3cnn(CCN4CCOCC4)c3)ncc2Br)[C@@H]2C=C[C@H]1C2 (mixture of isomers) [Example 39, (1S,2S,3R,4R)-3-[(5-bromo-2-{[1-(2-morpholin-4-ylethyl)-1H-pyrazol-4-yl]amino}pyrimidin-4-yl)amino]bicyclo[2.2.1]hept-5-ene-2-carboxamide and (1R,2R,3S,4S)-3-[(5-bromo-2-{[1-(2-morpholin-4-ylethyl)-1H-pyrazol-4-yl]amino}pyrimidin-4-yl)amino]bicyclo[2.2.1]hept-5-ene-2-carboxamide] |
| > 7.00 | > 7.00 | > 7.00 | Cn1cc(Nc2ncc(Cl)c(N[C@@H]3CCC[C@@H]3C(N)=O)n2)cn1.Cn1cc(Nc2ncc(Cl)c(N[C@H]3CCC[C@H]3C(N)=O)n2)cn1 (mixture of isomers) [Example 43, (1S,2R)-2-({5-chloro-2-[(1-methyl-1H-pyrazol-4-yl)amino]pyrimidin-4-yl}amino)cyclopentanecarboxamide and (1R,2S)-2-({5-chloro-2-[(1-methyl-1H-pyrazol-4-yl)amino]pyrimidin-4-yl}amino)cyclopentanecarboxamide] |
